Laboratory results taken from patent US20020051978A1, “Methods and compositions for the identification, assessment, prevention and therapy of human cancers” (priority 2000, published 2002).
Like-named read-outs stand apart in the source and are kept apart here.

Experiments:
[1] = tested on: 60 cancer cell lines (NCI 60 cancer cell line series); test: NCI-DTP in vitro cancer screen, sulforhodamine B (SRB) growth inhibition, 48 hour exposure; format: cell-based, human; set-up: key to sensitivity class Ovarian OVCAR-8 CL6005 / sensitivity class Ovarian SK-OV-3 CL6011 / sensitivity class Prostate DU-145 CL11003 / sensitivity class NSCLC NCI-H522 CL1003 / sensitivity class Ovarian IGROV1 CL6010 / sensitivity class Ovarian OVCAR-4 CL6002 / sensitivity class Prostate PC-3(I) CL11001 / sensitivity class Renal A498 CL9013 / sensitivity class Renal SN12C CL9008: sensitivity class: 1 = Low, 2 = Medium, 3 = High
In short: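 Values come from the NCI-DTP screen database: -log GI50, the concentration giving 50% growth inhibition, derived from SRB cell-mass dose-response curves. Each line seeded at its own density, treated day 1 at five ten-fold-spaced doses in duplicate wells, stained after 48 h.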

[2] = tested on: 60 cancer cell lines (NCI 60 cancer cell line series); conditions: cited from earlier work

## COc1cc([C@@H]2c3cc4c(cc3[C@@H](O[C@@H]3O[C@@H]5CO[C@@H](C)O[C@H]5[C@H](O)[C@H]3O)[C@H]3COC(=O)[C@H]23)OCO4)cc(OC)c1O [Etoposide]
[1]; Breast BT-549 (CL5013)
  classification of cell line as Low(1), Medium(2) or High(3) sensitivity to compound: 2
[1]; Breast HS-578T CL5006
  classification of cell line as Low(1), Medium(2) or High(3) sensitivity to compound: 3
[1]; Breast MCF7(I) (CL5001)
  classification of cell line as Low(1), Medium(2) or High(3) sensitivity to compound: 2
[1]; Breast MCF7/ADRr (CL5002)
  classification of cell line as Low(1), Medium(2) or High(3) sensitivity to compound: 1
[1]; Breast MDA-MB-231 CL5005
  classification of cell line as Low(1), Medium(2) or High(3) sensitivity to compound: 2
[1]; Breast MDA-MB-435 (CL5011)
  classification of cell line as Low(1), Medium(2) or High(3) sensitivity to compound: 2
[1]; Breast MDA-N CL5012
  classification of cell line as Low(1), Medium(2) or High(3) sensitivity to compound: 3
[1]; Breast T-47D (CL5014)
  classification of cell line as Low(1), Medium(2) or High(3) sensitivity to compound: 3
[1]; CNS SF-268 CL12014
  classification of cell line as Low(1), Medium(2) or High(3) sensitivity to compound: 2
[1]; CNS SF-295 CL12015
  classification of cell line as Low(1), Medium(2) or High(3) sensitivity to compound: 2
[1]; CNS SF-539 CL12016
  classification of cell line as Low(1), Medium(2) or High(3) sensitivity to compound: 2
[1]; CNS SNB-19 (CL12002)
  classification of cell line as Low(1), Medium(2) or High(3) sensitivity to compound: 2
[1]; CNS SNB-75(I) CL12005
  classification of cell line as Low(1), Medium(2) or High(3) sensitivity to compound: 2
[1]; CNS U251(I) CL12009
  classification of cell line as Low(1), Medium(2) or High(3) sensitivity to compound: 2
[1]; Colon COLO-250 CL4010
  classification of cell line as Low(1), Medium(2) or High(3) sensitivity to compound: 1
[1]; Colon HCC-2998 (CL4002)
  classification of cell line as Low(1), Medium(2) or High(3) sensitivity to compound: 2
[1]; Colon HCT-15 CL4015
  classification of cell line as Low(1), Medium(2) or High(3) sensitivity to compound: 2
[1]; Colon HCT-116 (CL4003)
  classification of cell line as Low(1), Medium(2) or High(3) sensitivity to compound: 2
[1]; Colon HT29(I) CL4001
  classification of cell line as Low(1), Medium(2) or High(3) sensitivity to compound: 1
[1]; Colon KM12 (CL4017)
  classification of cell line as Low(1), Medium(2) or High(3) sensitivity to compound: 2
[1]; Colon SW-620 (CL4009)
  classification of cell line as Low(1), Medium(2) or High(3) sensitivity to compound: 2
[1]; Leukemia CCRF-CEM(I) (CL7003)
  classification of cell line as Low(1), Medium(2) or High(3) sensitivity to compound: 2
[1]; Leukemia HL-60(I) (CL7008)
  classification of cell line as Low(1), Medium(2) or High(3) sensitivity to compound: 2
[1]; Leukemia K562(I) CL7005
  classification of cell line as Low(1), Medium(2) or High(3) sensitivity to compound: 2
[1]; Leukemia MOLT-4 (CL7006)
  classification of cell line as Low(1), Medium(2) or High(3) sensitivity to compound: 3
[1]; Leukemia RPMI-8226(I) (CL7010)
  classification of cell line as Low(1), Medium(2) or High(3) sensitivity to compound: 2
[1]; Leukemia SR CL7019
  classification of cell line as Low(1), Medium(2) or High(3) sensitivity to compound: 3
[1]; Melanoma LOX IMVI CL10001
  classification of cell line as Low(1), Medium(2) or High(3) sensitivity to compound: 2
[1]; Melanoma M14 (CL10014)
  classification of cell line as Low(1), Medium(2) or High(3) sensitivity to compound: 3
[1]; Melanoma MALME-3M CL10002
  classification of cell line as Low(1), Medium(2) or High(3) sensitivity to compound: 2
[1]; cell line NSCLC NCI-H23(I), CL1001
  sensitivity class NSCLC NCI-H23(I) CL1001: 2
[1]; cell line NSCLC NCI-H332M, CL1017
  sensitivity class NSCLC NCI-H332M CL1017: 1
[1]; cell line NSCLC NCI-H460, CL1021
  sensitivity class NSCLC NCI-H460 CL1021: 3
[1]; cell line NSCLC NCI-H522, CL1003
  sensitivity class NSCLC NCI-H522 CL1003: 2
[1]; cell line Ovarian IGROV1, CL6010
  sensitivity class Ovarian IGROV1 CL6010: 1
[1]; cell line Ovarian OVCAR-3, CL6001
  sensitivity class Ovarian OVCAR-3 CL6001: 1
[1]; cell line Ovarian OVCAR-4, CL6002
  sensitivity class Ovarian OVCAR-4 CL6002: 1
[1]; cell line Ovarian OVCAR-5, CL6003
  sensitivity class Ovarian OVCAR-5 CL6003: 1
[1]; cell line Ovarian OVCAR-8, CL6005
  sensitivity class Ovarian OVCAR-8 CL6005: 2
[1]; cell line Ovarian SK-OV-3, CL6011
  sensitivity class Ovarian SK-OV-3 CL6011: 2
[1]; cell line Prostate DU-145, CL11003
  sensitivity class Prostate DU-145 CL11003: 3
[1]; cell line Prostate PC-3(I), CL11001
  sensitivity class Prostate PC-3(I) CL11001: 3
[1]; cell line Renal 786-O, CL9018
  sensitivity class Renal 786-O CL9018: 2
[1]; cell line Renal A498, CL9013
  sensitivity class Renal A498 CL9013: 2
[1]; cell line Renal ACHN, CL9023
  sensitivity class Renal ACHN CL9023: 3
[1]; cell line Renal CAKI-1, CL9015
  sensitivity class Renal CAKI-1 CL9015: 2
[1]; cell line Renal RXF-393, CL9016
  sensitivity class Renal RXF-393 CL9016: 2
[1]; cell line Renal SN12C, CL9008
  sensitivity class Renal SN12C CL9008: 2
[1]; cell line Renal TK10, CL9024
  sensitivity class Renal TK10 CL9024: 2
[1]; cell line Renal UO-31, CL9004
  sensitivity class Renal UO-31 CL9004: 1
[2]; Breast BT-549 (CL5013)
  -Log (GI50): 5.6
[2]; Breast HS-578T CL5006
  -Log (GI50): 6.1
[2]; Breast MCF7(I) (CL5001)
  -Log (GI50): 5.4
[2]; Breast MCF7/ADRr (CL5002)
  -Log (GI50): 3.9
[2]; Breast MDA-MB-231 CL5005
  -Log (GI50): 5.8
[2]; Breast MDA-MB-435 (CL5011)
  -Log (GI50): 4.5
[2]; Breast MDA-N CL5012
  -Log (GI50): 6.0
[2]; Breast T-47D (CL5014)
  -Log (GI50): 6.0
[2]; CNS SF-268 CL12014
  -Log (GI50): 4.8
[2]; CNS SF-295 CL12015
  -Log (GI50): 5.0
[2]; CNS SF-539 CL12016
  -Log (GI50): 5.2
[2]; CNS SNB-19 (CL12002)
  -Log (GI50): 4.8
[2]; CNS SNB-75(I) CL12005
  -Log (GI50): 4.8
[2]; CNS U251(I) CL12009
  -Log (GI50): 5.2
[2]; Colon COLO-250 CL4010
  -Log (GI50): 4.2
[2]; Colon HCC-2998 (CL4002)
  -Log (GI50): 4.7
[2]; Colon HCT-15 CL4015
  -Log (GI50): 4.5
[2]; Colon HCT-116 (CL4003)
  -Log (GI50): 4.6
[2]; Colon HT29(I) CL4001
  -Log (GI50): 4.2
[2]; Colon KM12 (CL4017)
  -Log (GI50): 4.5
[2]; Colon SW-620 (CL4009)
  -Log (GI50): 4.9
[2]; Leukemia CCRF-CEM(I) (CL7003)
  -Log (GI50): 5.6
[2]; Leukemia HL-60(I) (CL7008)
  -Log (GI50): 5.7
[2]; Leukemia K562(I) CL7005
  -Log (GI50): 4.6
[2]; Leukemia MOLT-4 (CL7006)
  -Log (GI50): 6.0
[2]; Leukemia RPMI-8226(I) (CL7010)
  -Log (GI50): 5.4
[2]; Leukemia SR CL7019
  -Log (GI50): 6.7
[2]; Melanoma LOX IMVI CL10001
  -Log (GI50): 5.3
[2]; Melanoma M14 (CL10014)
  -Log (GI50): 6.1
[2]; Melanoma MALME-3M CL10002
  -Log (GI50): 4.7
[2]; NCSLC NCI-H522 CL1003
  -Log (GI50): 5.1
[2]; NSCLC NCI-H23(I) CL1001
  -Log (GI50): 5.1
[2]; NSCLC NCI-H332M CL1017
  -Log (GI50): 3.8
[2]; NSCLC NCI-H460 CL1021
  -Log (GI50): 6.0
[2]; Ovarian IGROV1 CL6010
  -Log (GI50): 4.2
[2]; Ovarian OVCAR-3 CL6001
  -Log (GI50): 4.2
[2]; Ovarian OVCAR-4 CL6002
  -Log (GI50): 3.8
[2]; Ovarian OVCAR-5 CL6003
  -Log (GI50): 4.3
[2]; Ovarian OVCAR-8 CL6005
  -Log (GI50): 4.8
[2]; Ovarian SK-OV-3 CL6011
  -Log (GI50): 4.5
[2]; Prostate DU-145 CL11003
  -Log (GI50): 6.1
[2]; Prostate PC-3(I) CL11001
  -Log (GI50): 6.2
[2]; Renal 786-O CL9018
  -Log (GI50): 5.9
[2]; Renal A498 CL9013
  -Log (GI50): 4.7
[2]; Renal ACHN CL9023
  -Log (GI50): 6.1
[2]; Renal CAKI-1 CL9015
  -Log (GI50): 5.2
[2]; Renal RXF-393 CL9016
  -Log (GI50): 4.8
[2]; Renal SN12C CL9008
  -Log (GI50): 5.0
[2]; Renal TK10 CL9024
  -Log (GI50): 5.3
[2]; Renal UO-31 CL9004
  -Log (GI50): 4.1
